Data taken from US11746103B2, “ALK-5 inhibitors and uses thereof” (Sumitomo Pharma Oncology, Inc., priority 2020, dated 2023).

Columns and labels:
[1] = test system: HLA class I expression in KGN cells; test: HLA expression in KGN cell line (flow cytometry); format: cell-based, human; settings: 72 hours
Protocol: KGN cells were treated with 30 nM EX-11, 300 nM EX-11 or DMSO in the absence or presence of 1 ng/mL TGFβ for 72 hours. Cells were then washed, collected and incubated in the dark at 4° C. for 1 hour with a pan HLA class I antibody conjugated to PE (BD Pharmingen cat #560168). The cells were washed and analyzed by flow cytometry on an Attune N×T.

[2] = test system: EMT6 tumors; test: EMT6 syngeneic TNBC model
Protocol: The objective of this study was to evaluate preclinically the in vivo therapeutic efficacy of combining EX-11 with anti-PD-L1 and/or anti-PD-1 therapy for the treatment of EMT6 tumors orthotopically implanted in the mammary fat pad of female Balb/C mice.
Balb/C mice (aged 7-9 weeks) were inoculated orthotopically in the right mammary fat pad with EMT6 breast cancer cells (2.5×10^5) in 0.1 ml of PBS. Tumor measurements were performed via digital calipers. Once the mean tumor size reached approximately 85 mm^3 (day 11), 120 mice were randomized to 8 treatment arms (15 mice per arm).
The anti-PD-L1 inhibitor used in this study was a product of BioXcell (Cat #: BE0101, Clone #: 10F.9G2). The vehicle for the anti-PD-L1 inhibitor was PBS. The anti-PD-1 inhibitor used in this study was a product of BioXcell (Cat #: BE0146, Clone #: RMP1-14). The vehicle for the anti-PD-1 inhibitor was PBS. These inhibitors were injected intraperitoneally (i.p.), bi-weekly (BIW) for 3 weeks. The vehicle for EX-11 was NMP (10%)+20% Solutol in WFI (Water for Injection) (90%). The vehicle used for EX-11 was also used for the “Vehicle” arm of the study. EX-11 and the vehicle were delivered via oral gavage (p.o.), bi-daily (BID) for 21 days.
Body weights and tumor volumes were measured twice per week. Tumor volumes were measured in two dimensions using a caliper, and the volume was expressed in mm^3 using the formula: V=(L×W×W)/2, where V is tumor volume, L is tumor length (the longest tumor dimension) and W is tumor width (the longest tumor dimension perpendicular to L). Tumor Growth Inhibition (TGI) reported was TGI at the final study day, and is expressed as Mean % Δ Inhibition and was calculated using the following formula: [(C−C0)−(T−T0)/(C−C0)]*100%, where C refers to the tumor volume of the vehicle on the final study day, C0 to the tumor volume of the vehicle on the first day of dosing, T to the tumor volume of the treatment on a specific day of dosing and T0 to the tumor volume of the treatment group on the first day of dosing.
The first phase of the study was the dosing phase and was terminated at day 21, where 3 animals were sacrificed, and plasma and tumor samples were collected for biomarker analysis. The remaining 12 animals were monitored without dosing to determine mean survival.

Cc1cccc2c(Nc3ccnc(Nc4cccc(N5CCOCC5)c4)n3)cnnc12 [EX-11, N4-(8-methylcinnolin-4-yl)-N2-(3-morpholinophenyl)pyrimidine-2,4-diamine]
HLA class I expression repressed by TGFβ stimulation ([1]; 30 nM, 300 nM + 1 ng/mL TGFβ): reversed | increase of HLA class I expression ([1]; absence of TGFβ): up to 2 fold | tumor growth inhibition (TGI) compared to vehicle ([2]; EX-11 at 75 mg/kg PO BID x 21 days): did not result in significant TGI | tumor growth inhibition (TGI) compared to vehicle ([2]; EX-11 at 150 mg/kg PO BID x 21 days): 37% | Mean survival ([2]; EX-11 at 150 mpk where given): 25 days | tumor pliability ([2]; all groups receiving EX-11 vs vehicle or checkpoint antibody single agent): substantially more pliable
